Test results taken from patent publication US6664372B1, “Azatide peptidomimetics” (The Scripps Research Institute, priority 1996, dated 2003).
Starred links: 1 amine or outer side, 2 acyl side, 3 side chain; linkers in the order of their positions; H or OH if unused. Non-standard residues stand in square brackets, D forms with d. No end group written: not given here. azaTyr = O=C(N(Cc1ccc(O)cc1)N[*:1])[*:2]; azaPhe = O=C(N(Cc1ccccc1)N[*:1])[*:2]; azaLeu = CC(C)CN(N[*:1])C(=O)[*:2]; azaGly = NNC(=O)O

System: anti-β-endorphin monoclonal antibody 3-E7 (IgG 3-E7)
Assay: Azatide (16) competition ELISA for anti-β-endorphin monoclonal antibody
Assay type: binding, mouse
Details: at 1 mM, plate coated with Tyr-Gly-Gly-Phe-Leu-BSA conjugate

## Tyr^a-Gly^a-Gly^a-Phe^a-Leu^a.2CP3COOH ([azaTyr][azaGly][azaGly][azaPhe][azaLeu]; also: salt/adduct .2CP3COOH) [compound 16, Leu-enkephalin azatide mimetic; every α-carbon replaced by nitrogen]
  competition with the natural peptide for 3-E7 (competition ELISA): non-ligand
Listed as azatide pentamer
  competition with the natural peptide for 3-E7 (competition ELISA): no propensity to compete
